As to `Cc1ccccc1Nc1nc2ccc(CC(=O)Nc3ccc(C(C)CC(=O)O)nc3)cc2o1` (racemic) [Example 1, (3RS)-3-{5-[2-(2-o-Tolylamino-benzoxazol-6-yl)-acetylamino]-pyrid-2-yl}-butyric acid], the melting point was 195 to 196 °C (dec.).
